Assay results reported in patent publication US9278968B2, “Imidazopyridine compounds” (ASTELLAS PHARMA INC., priority 2012, dated 2016).

Molecular target: human purified sGC (heterodimer of sGCα1 and sGCβ1) (Homo sapiens (Human), UniProt Q02108+Q02153)
Experiment: sGC activation test (cGMP produced, HTRF)
Format: biochemical
Settings: maximum 100 μM
Experimental: The activity of sGC was evaluated by measuring the amount of cGMP produced by human purified sGC.
Using an sGCα 1 gene (NCBI accession No. BC028384.2) and an sGCβ1 gene (NCBI accession No. BC047620.1), an N-terminal FLAG tag-fused sGCα1 and an sGCβ1 expression baculovirus were prepared. These viruses were transfected into insect cells Sf9 (Cat. No. 11496-015, Gibco) to express a protein. From the cell lysates of the insect cells, heterodimers of the N-terminal FLAG tag-fused sGCα1 and sGCβ1 were purified with an M2 Affinity Gel (Sigma-Aldrich, Inc.) to obtain a human sGC.
An Example compound was dissolved in DMSO and diluted 20-fold with ultrapure water. 2 μL of the diluted Example compound solution (maximum concentration of 100 μM), 2 μL of a substrate solution [0.5 μM triethanolamine buffer solution, 0.03 μM dithiothreitol, 0.01 μM GTP, 0.04 μM MgCl2, and 0.03 μM sodium nitroprusside (SNP)], and 6 μL of a human enzyme suspension were added to 384-well plates (manufactured by Greiner Bio-One), and incubated at room temperature for one hour. The measurement of the amount of cGMP was carried out, using an HTRF reagent (Cisbio).
The sGC activation action of the Example compound was calculated as an Example compound concentration which gives 50% of a maximum activity (EC50), in which the maximum activity by the addition of a compound shown in Preparation Example 200, 8-(cyclohexylmethoxy)-N-[(1R)-2-hydroxy-1-phenylethyl]-2-methylimidazo[1,2-a]pyridine-3-carboxamide hydrochloride (maximum 100 μM), is taken as 100%. Further, the maximum activity of sGC with the addition of 8-(cyclohexylmethoxy)-N-[(1R)-2-hydroxy-1-phenylethyl]-2-methylimidazo[1,2-a]pyridine-3-carboxamide hydrochloride is 10-fold or more relative to the sGC activation without the addition of the compound, and it is recognized that the compound has a good sGC activating action. […] The test results of some Example compounds that are the compounds of the formula (I) of the present invention are shown below. Further, in Tables, Ex. represents Example number.

Sequence of human purified sGC (heterodimer of sGCα1 and sGCβ1) (Q02108 whole entry): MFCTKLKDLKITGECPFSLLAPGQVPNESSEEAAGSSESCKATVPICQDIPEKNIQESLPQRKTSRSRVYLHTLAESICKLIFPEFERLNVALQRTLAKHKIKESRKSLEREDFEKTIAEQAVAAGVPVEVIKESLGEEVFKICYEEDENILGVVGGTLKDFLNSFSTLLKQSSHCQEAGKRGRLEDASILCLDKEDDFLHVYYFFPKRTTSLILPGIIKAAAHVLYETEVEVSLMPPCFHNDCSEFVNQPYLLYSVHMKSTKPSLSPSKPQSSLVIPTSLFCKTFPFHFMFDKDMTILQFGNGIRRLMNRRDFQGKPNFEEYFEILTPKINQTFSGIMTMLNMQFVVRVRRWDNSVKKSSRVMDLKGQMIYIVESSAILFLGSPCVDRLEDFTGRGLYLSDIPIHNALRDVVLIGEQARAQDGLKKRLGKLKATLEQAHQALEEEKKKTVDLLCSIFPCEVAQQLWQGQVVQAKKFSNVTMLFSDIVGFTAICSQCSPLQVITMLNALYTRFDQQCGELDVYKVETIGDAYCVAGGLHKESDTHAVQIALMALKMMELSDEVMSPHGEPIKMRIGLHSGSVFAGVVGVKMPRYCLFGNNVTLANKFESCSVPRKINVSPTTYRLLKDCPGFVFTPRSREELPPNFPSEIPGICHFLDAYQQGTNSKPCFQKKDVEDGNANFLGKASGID
Sequence of human purified sGC (heterodimer of sGCα1 and sGCβ1) (Q02153 whole entry): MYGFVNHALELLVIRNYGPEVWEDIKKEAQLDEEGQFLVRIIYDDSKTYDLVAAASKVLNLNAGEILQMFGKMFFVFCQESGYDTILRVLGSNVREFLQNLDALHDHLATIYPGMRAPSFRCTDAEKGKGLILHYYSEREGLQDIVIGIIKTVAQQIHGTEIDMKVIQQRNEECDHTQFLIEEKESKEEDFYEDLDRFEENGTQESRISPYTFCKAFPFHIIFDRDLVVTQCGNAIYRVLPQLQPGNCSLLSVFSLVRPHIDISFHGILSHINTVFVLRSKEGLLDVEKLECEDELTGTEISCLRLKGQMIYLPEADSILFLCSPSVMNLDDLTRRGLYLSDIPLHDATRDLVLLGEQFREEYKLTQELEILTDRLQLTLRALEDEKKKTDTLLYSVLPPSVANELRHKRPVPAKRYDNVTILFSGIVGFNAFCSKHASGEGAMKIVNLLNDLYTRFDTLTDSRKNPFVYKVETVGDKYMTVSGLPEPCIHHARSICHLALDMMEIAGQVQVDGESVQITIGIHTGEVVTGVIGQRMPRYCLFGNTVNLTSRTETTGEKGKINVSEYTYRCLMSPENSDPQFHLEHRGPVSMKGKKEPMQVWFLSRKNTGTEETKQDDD

| maximum activity of sGC relative to sGC activation without the addition of the compound [fold] | SMILES |
| --- | --- |
| ≥ 10 | Cc1nc2c(OCC3CCCCC3)cccn2c1C(=O)N[C@@H](CO)c1ccccc1.Cl [Preparation Example 200, 8-(cyclohexylmethoxy)-N-[(1R)-2-hydroxy-1-phenylethyl]-2-methylimidazo[1,2-a]pyridine-3-carboxamide hydrochloride, reference compound] |

Same assay, conditions: maximum activity of Preparation Example 200 compound (maximum 100 μM) taken as 100%; with SNP; read-out: EC50 (concentration giving 50% of maximum activity)

| EC50 [µM] | SMILES |
| --- | --- |
| 3.7 | Cc1nc2c(OCc3c(F)cccc3F)cccn2c1C(=O)NC(CO)(CO)c1ccc(F)cn1 [Example 57] |
| 8.5 | Cc1ccc(C(CO)(CO)NC(=O)c2c(C)nc3c(OCc4c(F)cccc4F)cccn23)nc1 [Example 56] |
| 11 | Cc1nc2c(OCc3c(F)cccc3F)cccn2c1C(=O)NC(C)(CO)c1nnn(CC(C)(C)O)n1 (centres unmarked) [Example 105, 8-[(2,6-difluorobenzyl)oxy]-N-{1-hydroxy-2-[2-(2-hydroxy-2-methylpropyl)-2H-tetrazol-5-yl]propan-2-yl}-2-methylimidazo[1,2-a]pyridine-3-carboxamide] |
| 25 | Cc1nc2c(OCc3c(F)cccc3F)cccn2c1C(=O)NC(CO)c1cnn(C)c1 (centres unmarked) [Example 49] |
| 26 | CCn1cc(C(CO)(CO)NC(=O)c2c(C)nc3c(OCc4c(F)cccc4F)cccn23)cn1 [Example 101] |
| 21 | Cc1nc2c(OCc3c(F)cccc3F)cccn2c1C(=O)NC(CO)(CO)c1cnn(C)c1 [Example 71] |
| 18 | Cc1nc2c(OCc3c(F)cccc3F)cccn2c1C(=O)NC(CO)(CO)c1ccn(C)n1 [Example 95] |
| 9.1 | Cc1nc2c(OCc3c(F)cccc3F)cccn2c1C(=O)NC(C)(CO)c1nnn(CC(C)O)n1 (centres unmarked) [Example 106] |
| 12 | COCCn1nnc(C(C)(CO)NC(=O)c2c(C)nc3c(OCc4c(F)cccc4F)cccn23)n1 (centres unmarked) [Example 74] |
| 7.9 | Cc1nc2c(OCc3c(F)cccc3F)cccn2c1C(=O)NC(C)(CO)c1cnn(C)c1 (centres unmarked) [Example 50] |
| 23 | Cc1nn(C)cc1C(CO)(CO)NC(=O)c1c(C)nc2c(OCc3c(F)cccc3F)cccn12 [Example 109] |
| 21 | Cc1nc2c(OCc3c(F)cccc3F)cccn2c1C(=O)NC(C)(CO)c1cnn(C)c1C (centres unmarked) [Example 93] |
| 30 | Cc1nc2c(OCc3c(F)cccc3F)cccn2c1C(=O)NC(CO)(CO)c1nnn(C)n1 [Example 64] |
| 6.5 | Cc1ccnc(C(CO)(CO)NC(=O)c2c(C)nc3c(OCc4c(F)cccc4F)cccn23)c1 [Example 62] |
| 1.7 | Cc1nc2c(OCc3c(F)cccc3F)cccn2c1C(=O)NC(CO)(CO)c1cccc(CO)c1 [Example 53] |
| 4 | Cc1nc2c(OCc3c(F)cccc3F)cccn2c1C(=O)N[C@@](C)(CO)c1nc(CO)cs1 [Example 21] |
| 12 | Cc1cnc(C(CO)(CO)NC(=O)c2c(C)nc3c(OCc4c(F)cccc4F)cccn23)o1 [Example 60] |
| 5.1 | Cc1ncc(C(CO)(CO)NC(=O)c2c(C)nc3c(OCc4c(F)cccc4F)cccn23)s1 [Example 78] |
| 14 | Cc1nn(C)cc1C(C)(CO)NC(=O)c1c(C)nc2c(OCc3c(F)cccc3F)cccn12 (centres unmarked) [Example 94] |
| 2.7 | Cc1nc2c(OCc3c(F)cccc3F)cccn2c1C(=O)NC(C)(CO)c1cncnc1 (centres unmarked) [Example 48] |
| 3.3 | COc1ccc(C(CO)(CO)NC(=O)c2c(C)nc3c(OCc4c(F)cccc4F)cccn23)cn1 [Example 58] |
| 2.1 | Cc1cnc([C@H](CO)NC(=O)c2c(C)nc3c(OCc4c(F)cccc4F)cccn23)s1 [Example 16] |
| 9.1 | Cc1nc2c(OCc3c(F)cccc3F)cccn2c1C(=O)NC(C)(CO)c1nnn(CCO)n1 (centres unmarked) [Example 75] |
| 1.4 | Cc1nc2c(OCc3c(F)cccc3F)cccn2c1C(=O)NC(C)(CO)c1ccc(CO)cc1 (centres unmarked) [Example 4, 8-[(2,6-difluorobenzyl)oxy]-N-{1-hydroxy-2-[4-(hydroxymethyl)phenyl]propan-2-yl}-2-methylimidazo[1,2-a]pyridine-3-carboxamide] |

Second part, the compound before the results:

| SMILES | EC50 [µM] |
| --- | --- |
| Cc1nc2c(OCc3cccc(F)c3F)cccn2c1C(=O)NC(CO)(CO)c1ccc(F)cc1 [Example 61] | 6.4 |
| Cc1nc2c(OCc3c(F)cccc3F)cccn2c1C(=O)N[C@@H](CO)c1nnn(C(C)C)n1 [Example 110] | 12 |
| Cc1nnc(C(C)(CO)NC(=O)c2c(C)nc3c(OCC4CCCCC4)cccn23)o1 (centres unmarked) [Example 84] | 7.1 |
| Cc1nc2c(OCC3CCCCC3)cccn2c1C(=O)NC(C)(CO)c1nnc(C2CC2)o1 (centres unmarked) [Example 88] | 5.3 |
| Cc1nc2c(OCc3c(F)cccc3F)cccn2c1C(=O)N[C@]1(c2ccccc2)CC[C@H](O)[C@H]1O (racemic) [Example 28] | 13 |
| Cc1nc2c(OCC3CCCCC3)cccn2c1C(=O)N[C@@](C)(CO)c1cccc(C(N)=O)c1 [Example 13] | 0.84 |
| Cc1nc2c(OCC3CCCCC3)cccn2c1C(=O)NC(C)(CO)c1nnn(C)n1 (centres unmarked) [Example 73a] | 6.4 |
| Cc1nc2c(OCc3c(F)cccc3F)cccn2c1C(=O)NCc1ccccc1[C@H](O)[C@H](C)O [Example 30] | 5.6 |
| Cc1nc2c(OCC3CCCCC3)cccn2c1C(=O)NC(CO)(CO)c1nnn(C(F)F)n1 [Example 97] | 3.5 |
| Cc1nnc([C@H](CO)NC(=O)c2c(C)nc3c(OCc4c(F)cccc4F)cccn23)o1 [Example 42] | 33 |
| Cc1nc2c(OCc3cccc(F)c3F)cccn2c1C(=O)NC(C)(CO)c1nnn(C)n1 (centres unmarked) [Example 82] | 21 |
| Cc1nc2c(OCC3CCCCC3)cccn2c1C(=O)NC(CO)(CO)c1nnn(C)n1 [Example 66] | 16 |
| Cc1nc2c(OCc3c(F)cccc3F)cccn2c1C(=O)NCc1ccccc1[C@H](O)[C@@H](C)O [Example 33] | 7.4 |
| Cc1nc2c(OCc3c(F)cccc3F)cccn2c1C(=O)NCc1ccncc1[C@@H](O)[C@@H](C)O (racemic) [Example 90] | 9.8 |
| Cc1nc2c(OCc3c(F)cccc3F)cccn2c1C(=O)NC(C)(CO)c1nnn(CC2CC2)n1 (centres unmarked) [Example 103] | 6.1 |
| Cc1nc2c(OCc3c(F)cccc3F)cccn2c1C(=O)NC(C)(CO)c1ncccn1 (centres unmarked) [Example 14] | 4.4 |
| Cc1nc2c(OCc3c(F)cccc3F)cccn2c1C(=O)NC(C)(CO)c1nnc(C2CC2)o1 (centres unmarked) [Example 87] | 5.9 |

| SMILES | EC50 [µM] |
| --- | --- |
| Cc1nnc(C(CO)(CO)NC(=O)c2c(C)nc3c(OCC4CCCCC4)cccn23)o1 [Example 98] | 24 |
| Cc1nc2c(OCc3c(F)cccc3F)cccn2c1C(=O)NCc1ccccc1C(O)CO (centres unmarked) [Example 5, 8-[(2,6-difluorobenzyl)oxy]-N-[2-(1,2-dihydroxyethyl)benzyl]-2-methylimidazo[1,2-a]pyridine-3-carboxamide] | 6.4 |
| Cc1nc2c(OCC3CCCCC3)cccn2c1C(=O)NC(C)(CO)c1nnc(C(F)(F)F)o1 (centres unmarked) [Example 92] | 1.4 |
| Cc1nc2c(OCC3CCCCC3)cccn2c1C(=O)N[C@@H](CO)c1nnnn1C [Example 29] | 17 |
| Cc1nc2c(OCc3ccccc3F)cccn2c1C(=O)N[C@@](C)(CO)c1cccc(CO)c1 [Example 15] | 2.8 |
| Cc1nc2c(OCC3CCCCC3)cccn2c1C(=O)N[C@@H](CO)c1nnc(C2CC2)o1 [Example 47] | 13 |
| Cc1nc2c(OCC3CCCCC3)cccn2c1C(=O)NC(CO)(CO)c1nnc(C2CC2)o1 [Example 100] | 20 |
| Cc1nc2c(OCc3ncccc3F)cccn2c1C(=O)N[C@@](C)(CO)c1ccccc1F [Example 23] | 9.8 |
| Cc1nc2c(OCC3CCCCC3)cccn2c1C(=O)NC(C)(CO)c1nnn(CCO)n1 (centres unmarked) [Example 104] | 7.5 |
| CCc1nnc(C(CO)(CO)NC(=O)c2c(C)nc3c(OCC4CCCCC4)cccn23)o1 [Example 99] | 17 |
| OCc1ccc(-c2nn(Cc3ccccc3)c3ccccc23)o1 [YC-1, [5-(1-benzyl-1H-indazol-3-yl)-2-furyl]methanol, reference compound] | 50 |
| CCc1nnc([C@H](CO)NC(=O)c2c(C)nc3c(OCc4c(F)cccc4F)cccn23)o1 [Example 44] | 16 |
| Cc1nc2c(OCc3c(F)cccc3F)cccn2c1C(=O)N[C@]1(c2ccccc2)CC[C@@H](O)[C@H]1O (racemic) [Example 27] | 12 |
| Cc1nc2c(OCc3c(F)cccc3F)cccn2c1C(=O)NCc1ccccc1[C@@H](O)[C@H](C)O [Example 32] | 8.2 |
| Cc1nc2c(OCC3CCCCC3)cccn2c1C(=O)N[C@]1(c2ccccn2)C[C@@H](O)[C@@H](O)C1 [Example 68] | 14 |
| Cc1nc2c(OCc3c(F)cccc3F)cccn2c1C(=O)NC(C)(C)c1cccc(C(N)=O)c1 [Example 80] | 7.1 |

Same assay, conditions: maximum activity of Preparation Example 200 compound = 100%

| maximum activity relative to maximum activity of Preparation Example 200 compound [%] | SMILES |
| --- | --- |
| 52 | OCc1ccc(-c2nn(Cc3ccccc3)c3ccccc23)o1 [YC-1, [5-(1-benzyl-1H-indazol-3-yl)-2-furyl]methanol, reference compound] |
